This note sets out measurements from ChEMBL document CHEMBL1134428, “Combretoxazolones: synthesis, cytotoxicity and antitumor activity” (Bioorg Med Chem Lett, 2001).

The test system of experiment [1] is PC-3. Briefly: Concentration which produces 50% inhibition of growth of prostate tumor cell line PC-3. Type of experiment: functional, cell-based. The settings on record: Homo sapiens.
The test system of experiment [2] is B16. Briefly: Concentration which produces 50% inhibition of growth of murine melanoma B16 cell line. The experiment is classed as functional, cell-based. The settings on record: Mus musculus.
Experiment [3] concerns HCT-116. Briefly: Concentration which produces 50% inhibition of growth of human colon tumor HCT 116. The experiment is classed as functional, cell-based.
The subject of experiment [4] is A549. Briefly: Concentration which produces 50% inhibition of growth of human lung carcinoma cell line A549. The experiment is classed as functional, cell-based.
In experiment [5] the test system is MCF7. The experiment can be described thus: Concentration which produces 50% inhibition of growth of human breast tumor MCF-7 cell line. Type of experiment: functional, cell-based.
The test system of experiment [6] is B16. Briefly: In vivo antitumor activity against BDF1 mice bearing B16 murine melanoma cells at a dose of 10 mg/kg/day. Type of experiment: functional, Mus musculus.
Experiment [7] concerns B16. The experiment can be described thus: In vivo antitumor activity against BDF1 mice bearing B16 murine melanoma cells at a dose of 100 mg/kg/day. The experiment is classed as functional, Mus musculus.
The test system of experiment [8] is B16. The experiment can be described thus: In vivo antitumor activity against BDF1 mice bearing B16 murine melanoma cells at a dose of 30 mg/kg/day. Type of experiment: functional, Mus musculus.
Experiment [9] relates to B16. Briefly: In vivo antitumor activity against BDF1 mice bearing B16 murine melanoma cells at a dose of 3 mg/kg/day. Type of experiment: functional, Mus musculus.
The subject of experiment [10] is MCF7. The experiment can be described thus: Compound was tested for inhibition of growth of human breast tumor MCF-7 cell line up to a conc of 10 uM; NI means no inhibition. The experiment is classed as functional, cell-based.
In experiment [11] the test system is HCT-116. The experiment can be described thus: Compound was tested for inhibition of growth of human colon tumor HCT116 up to a conc of 10 uM; NI means no inhibition. Type of experiment: functional, cell-based.
Experiment [12] has as its system PC-3. The experiment can be described thus: Compound was tested for inhibition of growth of prostate tumor cell line PC-3 up to a conc of 10 uM; NI means no inhibition. The experiment is classed as functional, cell-based, Homo sapiens.
Experiment [13] concerns A549. The experiment can be described thus: Compound was tested for inhibition of growth of human lung carcinoma cell line A549 up to a conc of 10 uM; NI means no inhibition. The experiment is classed as functional, cell-based.

Molecules are shown by their SMILES.

For the molecule `COc1cc(-n2c(-c3ccc4c(c3)OCO4)coc2=O)cc(OC)c1OC`, the 50% inhibitory concentration (IC50) in the experiment with PC-3 [1] was determined as 70.6 nM; in the experiment with B16 [2] it was 45 nM; in the experiment with HCT-116 [3], 57.4 nM; with A549 [4], 64.5 nM; with MCF7 [5] it was 39.7 nM.

Take `COc1ccc(-c2oc(O)nc2-c2cc(OC)c(OC)c(OC)c2)cc1`: the IC50 in the experiment on PC-3 [1] stood at 20.1 nM; in the experiment with B16 [2], 14.5 nM; in the experiment on HCT-116 [3] it was 21.7 nM; with A549 [4], 16.9 nM; in the experiment with MCF7 [5] it was 28.4 nM.

Turning to `COc1cc(-c2nc(O)oc2-c2ccc3ccccc3c2)cc(OC)c1OC`, the IC50 was determined as 7.1 nM in the experiment with PC-3 [1]; 7.4 nM with B16 [2]; 11.2 nM with HCT-116 [3]; 10.8 nM in the experiment on A549 [4]; 16.7 nM in the experiment with MCF7 [5].

In the case of `COc1ccc(-c2coc(=O)n2-c2cc(OC)c(OC)c(OC)c2)cc1N`, the IC50 in the experiment on PC-3 [1] is 2.5 nM; in the experiment with B16 [2], 1.1 nM; with HCT-116 [3], 3.2 nM; in the experiment on A549 [4], 4.3 nM; in the experiment on MCF7 [5], 1.8 nM. Also, the Inhibition rate in the experiment with B16 [6] was 34%; with B16 [7], 67%; in the experiment with B16 [8], 61%.

Regarding `COc1cc(-c2nc(O)oc2-c2ccc3c(c2)OCO3)cc(OC)c1OC`, the IC50 with PC-3 [1] came out at 112 nM; with B16 [2] it was 89.3 nM; in the experiment with HCT-116 [3] it was 101 nM; in the experiment on A549 [4] it was 63.1 nM; with MCF7 [5] it was 78.5 nM.

Regarding `COc1cccc2c1C(=O)c1c(O)c3c(c(O)c1C2=O)C[C@@](O)(C(=O)CO)C[C@@H]3O[C@H]1C[C@H](N)[C@H](O)[C@H](C)O1` [DOXORUBICIN], in the experiment with B16 [9], the Inhibition rate was found to be 55%.

Regarding `COc1cc(-n2c(-c3ccc4ccccc4c3)coc2=O)cc(OC)c1OC`, the half-maximal inhibitory concentration (IC50) in the experiment with PC-3 [1] worked out at 3.1 nM; with B16 [2], 5.8 nM; with HCT-116 [3], 4.9 nM; in the experiment with A549 [4], 5.9 nM; in the experiment with MCF7 [5] it was 3.7 nM.

Take `COc1ccc(-n2c(-c3cc(OC)c(OC)c(OC)c3)coc2=O)cc1`: the IC50 result in the experiment with MCF7 [10] is “Not Active”; with HCT-116 [11] it was “Not Active”; in the experiment with B16 [2] it was 1880 nM; with PC-3 [12], “Not Active”; in the experiment on A549 [13], “Not Active”.

Take `COc1ccc(-c2coc(=O)n2-c2cc(OC)c(OC)c(OC)c2)cc1`: the IC50 with PC-3 [1] turned out to be 7.5 nM; in the experiment on B16 [2] it was 7.9 nM; in the experiment with HCT-116 [3], 11 nM; in the experiment with A549 [4] it was 19.9 nM; in the experiment on MCF7 [5], 10.5 nM.

In the case of `COc1ccc(-c2nc(O)oc2-c2cc(OC)c(OC)c(OC)c2)cc1`, the IC50 entry was “Not Active” in the experiment with MCF7 [10]; “Not Active” in the experiment on HCT-116 [11]; 1390 nM in the experiment on B16 [2]; “Not Active” in the experiment with PC-3 [12]; “Not Active” with A549 [13].

Take `COc1ccc(-c2coc(=O)n2-c2cc(OC)c(OC)c(OC)c2)cc1O`: the IC50 in the experiment with PC-3 [1] worked out at 2.3 nM; with B16 [2] it was 0.9 nM; with HCT-116 [3], 1.7 nM; in the experiment with A549 [4] it was 3.1 nM; in the experiment on MCF7 [5], 2.9 nM.

Consider `COc1ccc(-c2oc(O)nc2-c2cc(OC)c(OC)c(OC)c2)cc1O`, for which the IC50 in the experiment on PC-3 [1] is 6.4 nM; in the experiment with B16 [2], 5.4 nM; in the experiment with HCT-116 [3], 6.1 nM; with A549 [4], 7.9 nM; in the experiment on MCF7 [5], 5.7 nM.

On to `COc1ccc(/C=C\c2cc(OC)c(OC)c(OC)c2)cc1O` [COMBRETASTATIN A4], for which the IC50 in the experiment on PC-3 [1] was found to be 2.7 nM; with B16 [2] it was 1 nM; in the experiment on HCT-116 [3], 0.9 nM; with A549 [4], 2.1 nM; in the experiment on MCF7 [5], 2.7 nM.

As to `COc1ccc(-c2oc(O)nc2-c2cc(OC)c(OC)c(OC)c2)cc1N`, the IC50 turned out to be 2.1 nM in the experiment with PC-3 [1]; 2.4 nM in the experiment with B16 [2]; 3.7 nM with HCT-116 [3]; 3.8 nM in the experiment on A549 [4]; 4.9 nM in the experiment with MCF7 [5].

Usually IC50 stands for the concentration needed to halve the response being measured. Lower therefore signals greater potency in that assay.
